{
  "source": "paper PMC10983001",
  "about": "“Development of Cytotoxic GW7604-Zeise’s Salt Conjugates as Multitarget Compounds with Selectivity for Estrogen Receptor- Positive Tumor Cells” (Journal of Medicinal Chemistry, 2024)",
  "key": {"TSA-201 cells": {"system": "TSA-201 cells", "assay": "MTT assay of metabolic activity, noncancerous TSA-201", "assay_type": "cell-based, human", "conditions": "72 h, MTT; read-out: IC50 TSA-210", "experimental": "(§1) The GW7604-Alk-PtCl3 complexes (with exclusion of GW7604-Prop-PtCl3) were investigated for cytotoxic effects in SKBr3 (ER-negative, COX-2-positive, Figure 6), MCF-7 (ERα-positive, COX-negative, Figure 6), and noncancerous TSA-201 (human embryonal kidney) cells at concentrations of 10–30 μM using an established MTT (3-(4,5-dimethylthiazol-2-yl)-2,5-diphenyltetrazolium bromide) assay.[60],[69]\n(§2) After incubation for 72 h, the amounts of surviving, metabolically active cells were quantified based on their ability to transform the water-soluble yellow dye MTT to a purple formazan, which can be analyzed by UV–vis spectroscopy.\n(§3) The exponentially growing cells were seeded at a density of 1750 (MCF-7), 2000 (SKBr3), and 1250 (TSA-201) cells/well into clear flat-bottom 96-well plates in triplicate. Following 24 h of incubation at 37 °C in a humidified atmosphere (5% CO2/95% air), the compounds [freshly prepared stock solutions in DMF, diluted with DMEM to the desired concentration (final DMF concentration of 0.1% (v/v))] were added to reach the indicated concentrations. After another 72 h of incubation, the cellular metabolic activity was measured employing an MTT assay. By adding predissolved MTT reagent in PBS at a final concentration of 0.5 mg/mL, the metabolic activity can be determined via an enzymatic conversion to a purple formazan salt. After 3 h, the medium was aspirated, and 200 μL of DMSO was added to dissolve the formed formazan crystals. The absorbance was measured at 570 and 690 nm (turbidity assessment) using an EnSpire plate reader (PerkinElmer, Waltham, MA, USA). Solvent-treated cells without a compound served as the positive control. Metabolic activity was calculated by the following equation [drawing 1]"}, "COX-2": {"system": "COX-2", "parameters": "method as in PMID 29848978", "conditions": "comparable concentration (10 μM); cited from earlier work"}, "SKBr3 cells": {"system": "SKBr3 cells", "assay": "MTT assay of metabolic activity, SKBr3", "assay_type": "cell-based, human", "conditions": "72 h, MTT", "experimental": "as §1, §2, §3"}, "human recombinant COX-1": {"biological_target": "T1, human recombinant COX-1 (Homo sapiens, UniProt P23219)", "T1 construct": "purchased Cayman Chemicals", "T1 sequence (P23219 24-599)": "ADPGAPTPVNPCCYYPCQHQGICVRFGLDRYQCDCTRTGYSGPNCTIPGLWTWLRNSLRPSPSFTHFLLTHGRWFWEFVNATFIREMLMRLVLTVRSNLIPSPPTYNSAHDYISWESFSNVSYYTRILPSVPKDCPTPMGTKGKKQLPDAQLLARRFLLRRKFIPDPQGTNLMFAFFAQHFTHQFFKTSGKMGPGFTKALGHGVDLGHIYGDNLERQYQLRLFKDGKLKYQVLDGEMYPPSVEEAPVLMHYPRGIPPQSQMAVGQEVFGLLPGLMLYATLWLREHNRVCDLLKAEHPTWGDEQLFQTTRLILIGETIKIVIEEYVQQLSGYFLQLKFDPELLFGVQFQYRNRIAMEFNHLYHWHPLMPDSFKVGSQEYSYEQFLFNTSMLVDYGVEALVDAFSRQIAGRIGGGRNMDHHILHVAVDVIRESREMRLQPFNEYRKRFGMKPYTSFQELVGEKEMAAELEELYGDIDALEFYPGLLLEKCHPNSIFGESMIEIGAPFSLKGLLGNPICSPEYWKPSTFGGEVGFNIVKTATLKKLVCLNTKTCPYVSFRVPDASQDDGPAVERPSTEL", "assay_type": "biochemical", "conditions": "20 μM, incubation 10 min", "experimental": "(§4) COX-1/2 inhibition was evaluated in an established assay on isolated isoenzymes. After incubation with the drugs (concentration: 20 μM) for 10 min, the remaining COX activity was measured by an enzyme-linked immunosorbent assay (ELISA).\n(§5) The incubation time of the compounds with the respective isoenzymes was exactly 10 min. The results are presented as the mean ± SEM of three independent experiments, with two replicates of each experiment. […] Graphs were drawn using GraphPad Prism 8.0."}, "human recombinant COX-2": {"biological_target": "T2, human recombinant COX-2 (Homo sapiens, UniProt P35354)", "T2 construct": "purchased Cayman Chemicals", "T2 sequence (P35354 18-604)": "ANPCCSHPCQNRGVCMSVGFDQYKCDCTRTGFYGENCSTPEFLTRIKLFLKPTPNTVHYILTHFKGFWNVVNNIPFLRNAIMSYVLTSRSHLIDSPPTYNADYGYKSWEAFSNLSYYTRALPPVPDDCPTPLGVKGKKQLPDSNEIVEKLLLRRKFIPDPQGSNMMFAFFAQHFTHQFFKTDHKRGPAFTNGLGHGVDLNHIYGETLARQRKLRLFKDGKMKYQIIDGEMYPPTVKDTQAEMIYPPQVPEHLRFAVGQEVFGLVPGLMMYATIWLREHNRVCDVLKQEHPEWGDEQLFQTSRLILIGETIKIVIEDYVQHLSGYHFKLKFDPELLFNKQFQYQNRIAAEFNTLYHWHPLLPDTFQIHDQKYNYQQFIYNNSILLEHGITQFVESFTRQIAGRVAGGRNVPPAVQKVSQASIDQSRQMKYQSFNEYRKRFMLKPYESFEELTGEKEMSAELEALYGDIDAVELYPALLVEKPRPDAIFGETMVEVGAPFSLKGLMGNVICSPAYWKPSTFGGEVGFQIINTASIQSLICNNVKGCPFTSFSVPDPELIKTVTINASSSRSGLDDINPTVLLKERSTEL", "assay_type": "biochemical", "conditions": "20 μM, incubation 10 min", "experimental": "as §4, §5"}, "MCF-7 cells": {"system": "MCF-7 cells", "assay": "MTT assay of metabolic activity, MCF-7", "assay_type": "cell-based, human", "conditions": "72 h, MTT; read-out: IC50 MCF-7", "experimental": "as §1, §2, §3"}, "tumor cells": {"system": "tumor cells", "parameters": "method as in PMID 25604474", "conditions": "cited from earlier work"}, "[1]": {"assay": "Stability in organic solutions (1H NMR)", "assay_type": "physicochemical", "conditions": "DMSO-d6, measured after 5 min / immediately after dissolution", "experimental": "Furthermore, it needs to be clarified whether organic solvent molecules are capable of ligand exchange reactions at the PtCl3 unit and form corresponding reaction/degradation products of the GW7604-Alk-PtCl3 complexes. Therefore, ^1H NMR experiments were performed with noncoordinating [e.g., acetone-d6, methanol-d4] and coordinating [e.g., acetonitrile-d3 , DMF-d7, dimethyl sulfoxide-d6 (DMSO-d6)] solvents. It should further be assessed whether the solvents are suitable for preparing stock solutions for structural characterization or in vitro testing.\nThe solutions (concentrations of 4.5–5.0 mM) were stored in NMR tubes at room temperature (rt) after being purged with argon."}, "COX-1": {"system": "COX-1", "parameters": "method as in PMID 29848978", "conditions": "10 μM, incubation time 10 min; cited from earlier work"}},
  "data": [
    {"compound": "C=C.O.[Cl][Pt-]([Cl])[Cl].[K+]", "note": "[Zeise’s salt, K[PtCl3(C2H4)]]", "values": [
      {"measurement": "IC50", "setting": "TSA-201 cells", "result": "> 20", "unit": "µM"},
      {"measurement": "COX-2 inhibition", "setting": "COX-2", "result": "inactive"},
      {"measurement": "IC50", "setting": "SKBr3 cells", "result": "> 20", "unit": "µM"},
      {"measurement": "% COX-1 inhibition", "setting": "human recombinant COX-1", "result": 83, "unit": "%"},
      {"measurement": "% COX-2 inhibition", "setting": "human recombinant COX-2", "result": 0, "unit": "%"},
      {"measurement": "IC50", "setting": "MCF-7 cells", "result": "> 20", "unit": "µM"},
      {"measurement": "cytotoxicity against tumor cells in vitro", "setting": "tumor cells", "result": "no cytotoxicity"},
      {"measurement": "stability in DMSO-d6", "setting": "[1]", "result": "gas bubbling occurred from the released ethylene"},
      {"measurement": "COX-1 inhibition", "setting": "COX-1", "result": 100, "unit": "%"}
    ]}
  ]
}
